According to PubChem BioAssay (NCI):
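Following 48 hours of exposure in 96-well plates, responses at five concentrations were used to interpolate endpoints linearly. Here, GI50 denotes the concentration required for 50% inhibition of growth. TGI is the concentration that stops growth completely.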

Tests used:
Test in all cases: DTP human tumour cell line panel, 48 h
[1] = tested on: HCT-15 colon
[2] = tested on: CAKI-1 renal
[3] = tested on: ACHN renal
[4] = tested on: U251 CNS
[5] = tested on: IGROV1 ovarian
[6] = tested on: UO-31 renal
[7] = tested on: SNB-19 CNS
[8] = tested on: SF-268 CNS
[9] = tested on: NCI-H23 lung
[10] = tested on: HOP-92 NSCLC
[11] = tested on: SW-620 colon
[12] = tested on: DU-145 prostate
[13] = tested on: HT29 colon
[14] = tested on: HOP-62 NSCLC
[15] = tested on: NCI-H226 lung
[16] = tested on: SNB-75 CNS
[17] = tested on: K-562 leukemia
[18] = tested on: NCI-H460 lung
[19] = tested on: KM12 colon
[20] = tested on: MDA-MB-231 breast
[21] = tested on: OVCAR-4 ovarian
[22] = tested on: UACC-62 melanoma
[23] = tested on: MCF7 breast
[24] = tested on: A549 NSCLC
[25] = tested on: TK-10 renal
[26] = tested on: EKVX NSCLC
[27] = tested on: T-47D breast
[28] = tested on: SK-MEL-28 melanoma
[29] = tested on: RXF 393 renal
[30] = tested on: SK-MEL-5 melanoma
[31] = tested on: HCC-2998 colon
[32] = tested on: SF-539 CNS
[33] = tested on: HCT-116 colon
[34] = tested on: SN12C renal
[35] = tested on: MOLT-4 leukemia
[36] = tested on: OVCAR-8 ovarian
[37] = tested on: HL-60(TB) leukemia
[38] = tested on: HS 578T breast
[39] = tested on: SR leukemia
[40] = tested on: OVCAR-5 ovarian
[41] = tested on: PC-3 prostate
[42] = tested on: LOX IMVI melanoma
[43] = tested on: BT-549 breast
[44] = tested on: NCI-H522 lung
[45] = tested on: SF-295 CNS
[46] = tested on: RPMI-8226 leukemia
[47] = tested on: UACC-257 melanoma
[48] = tested on: 786-0 renal
[49] = tested on: CCRF-CEM leukemia
[50] = tested on: NCI/ADR-RES ovarian
[51] = tested on: SK-OV-3 ovarian
[52] = tested on: A498 renal

## COc1ccc(Cn2cc3c(c2-c2cc(OC)c(OC)c(OC)c2)CCCc2cnoc2-3)cc1
[1]
  GI50: 478 nM
  TGI: > 100000 nM
[2]
  GI50: 490 nM
  TGI: > 100000 nM
[3]
  GI50: 900 nM
  TGI: > 100000 nM
[4]
  GI50: 4470 nM
  TGI: > 100000 nM
[5]
  GI50: 562 nM
  TGI: > 100000 nM
[6]
  GI50: 924 nM
  TGI: > 100000 nM
[7]
  GI50: 1530 nM
  TGI: > 100000 nM
[8]
  GI50: 4720 nM
  TGI: > 100000 nM
[9]
  GI50: 2620 nM
  TGI: > 100000 nM
[10]
  GI50: 1270 nM
  TGI: > 100000 nM
[11]
  GI50: 474 nM
  TGI: > 100000 nM
[12]
  GI50: 4110 nM
  TGI: > 100000 nM
[13]
  GI50: 1130 nM
  TGI: > 100000 nM
[14]
  GI50: 2220 nM
  TGI: > 100000 nM
[15]
  GI50: 1990 nM
  TGI: > 100000 nM
[16]
  GI50: 869 nM
  TGI: 4750 nM
[17]
  GI50: 422 nM
  TGI: > 100000 nM
[18]
  GI50: 500 nM
  TGI: > 100000 nM
[19]
  GI50: 692 nM
  TGI: > 100000 nM
[20]
  GI50: 2540 nM
  TGI: > 100000 nM
[21]
  GI50: 4970 nM
  TGI: > 100000 nM
[22]
  GI50: 906 nM
  TGI: > 100000 nM
[23]
  GI50: 437 nM
  TGI: > 100000 nM
[24]
  GI50: 2340 nM
  TGI: > 100000 nM
[25]
  GI50: > 100000 nM
  TGI: > 100000 nM
[26]
  GI50: 3000 nM
  TGI: > 100000 nM
[27]
  GI50: 1850 nM
  TGI: > 100000 nM
[28]
  GI50: > 100000 nM
  TGI: > 100000 nM
[29]
  GI50: 658 nM
  TGI: 5040 nM
[30]
  GI50: 2000 nM
  TGI: > 100000 nM
[31]
  GI50: 1610 nM
  TGI: 10600 nM
[32]
  GI50: 700 nM
  TGI: 5170 nM
[33]
  GI50: 391 nM
  TGI: > 100000 nM
[34]
  GI50: 4600 nM
  TGI: > 100000 nM
[35]
  GI50: 802 nM
  TGI: > 100000 nM
[36]
  GI50: 4300 nM
  TGI: > 100000 nM
[37]
  GI50: 350 nM
  TGI: > 100000 nM
[38]
  GI50: 1540 nM
  TGI: > 100000 nM
[39]
  GI50: 359 nM
  TGI: > 100000 nM
[40]
  GI50: 3720 nM
  TGI: > 100000 nM
[41]
  GI50: 849 nM
  TGI: > 100000 nM
[42]
  GI50: 997 nM
  TGI: > 100000 nM
[43]
  GI50: 482 nM
  TGI: > 100000 nM
[44]
  GI50: 975 nM
  TGI: 6900 nM
[45]
  GI50: 511 nM
  TGI: > 100000 nM
[46]
  GI50: 1560 nM
  TGI: > 100000 nM
[47]
  GI50: > 100000 nM
  TGI: > 100000 nM
[48]
  GI50: 669 nM
  TGI: > 100000 nM
[49]
  GI50: 415 nM
  TGI: > 100000 nM
[50]
  GI50: 544 nM
  TGI: > 100000 nM
[51]
  GI50: 4180 nM
  TGI: > 100000 nM
[52]
  GI50: 696 nM
  TGI: 7110 nM
